According to publication PMC5218480 (PLoS ONE, 2017):

Tested on: MV-4-11 cells
Assay: Gene expression microarray analysis (Affymetrix PrimeView) and GSEA
Type: cell-based, human
Set-up: RFU PODN (11730768_x_at) / Fold change /veh PODN (11730768_x_at) / RFU LINC00158 (11744669_a_at) / Fold change /veh LINC00158 (11744669_a_at) / RFU DUSP10 (11751237_a_at) / Fold change /veh DUSP10 (11751237_a_at) / RFU ID3 (11757404_x_at) / Fold change /veh ID3 (11757404_x_at) / RFU PLEKHG5 (11737974_s_at) / Fold change /veh PLEKHG5 (11737974_s_at) / RFU LRRC4B (11730491_at) / Fold change /veh LRRC4B (11730491_at) / RFU GIMAP4 (11747438_a_at) / Fold change /veh GIMAP4 (11747438_a_at) / RFU KRT8 (11758183_x_at) / Fold change /veh KRT8 (11758183_x_at) / RFU CNN1 (11734310_a_at) / Fold change /veh CNN1 (11734310_a_at) / RFU VPS37D (11726825_at) / Fold change /veh VPS37D (11726825_at) / RFU C10orf10 (11716522_x_at) / Fold change /veh C10orf10 (11716522_x_at) / RFU KIR2DL2 /// KIR2DL4 /// KIR2DL5A /// KIR2DL5B /// KIR2DS1 /// KIR2DS2 /// KIR2DS3 /// KIR2DS4 /// KIR3DL3 /// KIR3DL3 /// KIR3DS1 (11738374_at) / Fold change /veh KIR2DL2 /// KIR2DL4 /// KIR2DL5A /// KIR2DL5B /// KIR2DS1 /// KIR2DS2 /// KIR2DS3 /// KIR2DS4 /// KIR3DL3 /// KIR3DL3 /// KIR3DS1 (11738374_at) / RFU C1QL1 (11718748_at) / Fold change /veh C1QL1 (11718748_at) / RFU TMPRSS4 (11747572_a_at) / Fold change /veh TMPRSS4 (11747572_a_at) / RFU HAMP (11756126_x_at) / Fold change /veh HAMP (11756126_x_at) / RFU RNFT2 (11725882_a_at) / Fold change /veh RNFT2 (11725882_a_at) / RFU NR4A2 (11747474_a_at) / Fold change /veh NR4A2 (11747474_a_at) / RFU ABCC12 (11746883_a_at) / Fold change /veh ABCC12 (11746883_a_at) / RFU TMEM136 (11760407_x_at) / Fold change /veh TMEM136 (11760407_x_at) / RFU CLDN22 /// WWC2 (11732394_at) / Fold change /veh CLDN22 /// WWC2 (11732394_at) / RFU HLA-DPB1 (11760878_x_at) / Fold change /veh HLA-DPB1 (11760878_x_at) / RFU SPINT1 (11716480_a_at) / Fold change /veh SPINT1 (11716480_a_at) / RFU GAP43 (11754022_s_at) / Fold change /veh GAP43 (11754022_s_at) / RFU A4GNT (11735810_at) / Fold change /veh A4GNT (11735810_at) / RFU PRB3 (11715151_x_at) / Fold change /veh PRB3 (11715151_x_at) / RFU TUBB4B (11761932_at) / Fold change /veh TUBB4B (11761932_at) / RFU CAPN14 (11732068_a_at) / Fold change /veh CAPN14 (11732068_a_at) / RFU TMCC2 (11721928_a_at) / Fold change /veh TMCC2 (11721928_a_at) / RFU IRGQ (11745062_a_at) / Fold change /veh IRGQ (11745062_a_at) / RFU FAM174B (11720279_a_at) / Fold change /veh FAM174B (11720279_a_at) / RFU TMPRSS4 (11748680_a_at) / Fold change /veh TMPRSS4 (11748680_a_at) / RFU FAM212B (11763350_a_at) / Fold change /veh FAM212B (11763350_a_at) / RFU PLEKHG5 (11743358_a_at) / Fold change /veh PLEKHG5 (11743358_a_at) / RFU ZSCAN30 (11745921_a_at) / Fold change /veh ZSCAN30 (11745921_a_at) / RFU CMKLR1 (11741424_a_at) / Fold change /veh CMKLR1 (11741424_a_at) / RFU LOC101060620 /// MAPK8IP1 (11723275_at) / Fold change /veh LOC101060620 /// MAPK8IP1 (11723275_at) / RFU SPTSSB (11747773_x_at) / Fold change /veh SPTSSB (11747773_x_at) / RFU PRSS12 (11739890_at) / Fold change /veh PRSS12 (11739890_at) / RFU BIN1 (11741810_x_at) / Fold change /veh BIN1 (11741810_x_at) / RFU WNT11 (11732464_a_at) / Fold change /veh WNT11 (11732464_a_at) / RFU C10orf10 (11716521_a_at) / Fold change /veh C10orf10 (11716521_a_at) / RFU C5orf56 (11738089_at) / Fold change /veh C5orf56 (11738089_at) / RFU CYB561 (11721691_x_at) / Fold change /veh CYB561 (11721691_x_at) / RFU ANKRD19P (11752326_a_at) / Fold change /veh ANKRD19P (11752326_a_at) / RFU OR2T12 /// OR2T33 /// OR2T8 (11738714_s_at) / Fold change /veh OR2T12 /// OR2T33 /// OR2T8 (11738714_s_at) / RFU VCAN (11748164_a_at) / Fold change /veh VCAN (11748164_a_at) / RFU JSRP1 (11732532_at) / Fold change /veh JSRP1 (11732532_at) / RFU KRTAP10-11 (11738290_x_at) / Fold change /veh KRTAP10-11 (11738290_x_at) / RFU MYO3A (11730013_a_at) / Fold change /veh MYO3A (11730013_a_at) / RFU EBF3 (11725865_a_at) / Fold change /veh EBF3 (11725865_a_at) / RFU CAMK2N1 (11719241_x_at) / Fold change /veh CAMK2N1 (11719241_x_at) / RFU C5orf56 (11738088_a_at) / Fold change /veh C5orf56 (11738088_a_at) / RFU OLFML3 (11715873_a_at) / Fold change /veh OLFML3 (11715873_a_at) / RFU LOC100653217 /// NTM (11731650_a_at) / Fold change /veh LOC100653217 /// NTM (11731650_a_at) / RFU MAPK11 (11762145_a_at) / Fold change /veh MAPK11 (11762145_a_at) / RFU FIZ1 (11724087_x_at) / Fold change /veh FIZ1 (11724087_x_at) / RFU OASL (11726364_x_at) / Fold change /veh OASL (11726364_x_at) / RFU SOX15 (11748057_x_at) / Fold change /veh SOX15 (11748057_x_at) / RFU CD79A (11719716_a_at) / Fold change /veh CD79A (11719716_a_at) / RFU HIST1H1D (11736915_at) / Fold change /veh HIST1H1D (11736915_at) / RFU CASKIN2 (11723855_a_at) / Fold change /veh CASKIN2 (11723855_a_at) / RFU LOC730098 (11760151_x_at) / Fold change /veh LOC730098 (11760151_x_at) / RFU OR4N2 (11742367_at) / Fold change /veh OR4N2 (11742367_at) / RFU PRRT2 (11749266_a_at) / Fold change /veh PRRT2 (11749266_a_at) / RFU SNX32 (11753110_a_at) / Fold change /veh SNX32 (11753110_a_at) / RFU CDHR5 (11726645_a_at) / Fold change /veh CDHR5 (11726645_a_at) / RFU RCAN1 (11760418_a_at) / Fold change /veh RCAN1 (11760418_a_at) / RFU FAM167A (11723789_a_at) / Fold change /veh FAM167A (11723789_a_at) / RFU FAM26E (11764081_at) / Fold change /veh FAM26E (11764081_at) / RFU ISYNA1 (11749810_s_at) / Fold change /veh ISYNA1 (11749810_s_at) / RFU ACY1 (11761880_at) / Fold change /veh ACY1 (11761880_at) / RFU 11764098_at / Fold change /veh 11764098_at / RFU SAMD14 (11745864_x_at) / Fold change /veh SAMD14 (11745864_x_at) / RFU NPB (11741838_a_at) / Fold change /veh NPB (11741838_a_at) / RFU TMPRSS6 (11731388_a_at) / Fold change /veh TMPRSS6 (11731388_a_at) / RFU KRTAP10-2 (11738614_at) / Fold change /veh KRTAP10-2 (11738614_at) / RFU ARHGAP8 /// PRR5-ARHGAP8 (11727945_x_at) / Fold change /veh ARHGAP8 /// PRR5-ARHGAP8 (11727945_x_at) / RFU KRTAP5-7 /// NADSYN1 (11734609_at) / Fold change /veh KRTAP5-7 /// NADSYN1 (11734609_at) / RFU RASL12 (11751679_a_at) / Fold change /veh RASL12 (11751679_a_at) / RFU CDKN2B (11736163_a_at) / Fold change /veh CDKN2B (11736163_a_at) / RFU PRF1 (11729649_at) / Fold change /veh PRF1 (11729649_at) / RFU, ZNF638 /// ZNF638-IT1 / Fold change vs veh, ZNF638 /// ZNF638-IT1 / RFU, PANK3 / Fold change vs veh, PANK3 / RFU, SH3YL1 / Fold change vs veh, SH3YL1 / RFU, ZEB2 / Fold change vs veh, ZEB2 / RFU, NRIP1 / Fold change vs veh, NRIP1 / RFU, PTTG1IP / Fold change vs veh, PTTG1IP / RFU, CAPN2 / Fold change vs veh, CAPN2 / RFU, MED14 / Fold change vs veh, MED14 / RFU, SNORA58 / Fold change vs veh, SNORA58 / RFU, C1orf63 / Fold change vs veh, C1orf63 / RFU, LRRFIP1 / Fold change vs veh, LRRFIP1 / RFU, NDUFAF7 / Fold change vs veh, NDUFAF7 / RFU, SLC12A2 / Fold change vs veh, SLC12A2 / RFU, IBTK / Fold change vs veh, IBTK / RFU, ESF1 / Fold change vs veh, ESF1 / Fold change vs veh, TMEM50B / RFU, TAOK1 / Fold change vs veh, TAOK1 / RFU, ACBD3 / Fold change vs veh, ACBD3 / RFU, TMA16 / Fold change vs veh, TMA16 / RFU, RWDD3 / Fold change vs veh, RWDD3 / RFU, BCAT1 / Fold change vs veh, BCAT1 / RFU, EDEM3 / Fold change vs veh, EDEM3 / RFU, TMEM33 / Fold change vs veh, TMEM33 / RFU, WDR75 / Fold change vs veh, WDR75 / RFU, AHCTF1 / Fold change vs veh, AHCTF1 / RFU, TFRC / Fold change vs veh, TFRC / RFU, ZDHHC17 / Fold change vs veh, ZDHHC17 / RFU, NOM1 / Fold change vs veh, NOM1 / RFU, ARL8B / Fold change vs veh, ARL8B / RFU, ZBTB11 / Fold change vs veh, ZBTB11 / RFU, TAMM41 / Fold change vs veh, TAMM41 / RFU, KIAA1704 /// LOC100996395 / Fold change vs veh, KIAA1704 /// LOC100996395 / RFU, ING1 / Fold change vs veh, ING1 / RFU, TRMT61B / Fold change vs veh, TRMT61B / RFU, FUBP3 / Fold change vs veh, FUBP3 / RFU, TP53 / Fold change vs veh, TP53 / RFU, TNKS2 / Fold change vs veh, TNKS2 / RFU, ZFP14 / Fold change vs veh, ZFP14 / RFU, ACTR2 / Fold change vs veh, ACTR2 / RFU, PPP3R1 / Fold change vs veh, PPP3R1 / RFU, PIK3R1 / Fold change vs veh, PIK3R1 / RFU, HNRNPA1 / Fold change vs veh, HNRNPA1 / RFU, RNF170 / Fold change vs veh, RNF170 / RFU, ZNF28 / Fold change vs veh, ZNF28 / RFU, RNGTT / Fold change vs veh, RNGTT / RFU, OGT / Fold change vs veh, OGT / RFU, BRD1 / Fold change vs veh, BRD1 / RFU, MARS / Fold change vs veh, MARS / RFU, ZNF655 / Fold change vs veh, ZNF655 / RFU, FAHD1 / Fold change vs veh, FAHD1 / RFU, BDP1 / Fold change vs veh, BDP1 / RFU, LRRCC1 / Fold change vs veh, LRRCC1 / RFU, ARID1A / Fold change vs veh, ARID1A / RFU, ZNF146 / Fold change vs veh, ZNF146 / RFU, ZNF330 / Fold change vs veh, ZNF330 / RFU, GPN3 / Fold change vs veh, GPN3 / RFU, C9orf123 / Fold change vs veh, C9orf123 / RFU, N4BP2L2 / Fold change vs veh, N4BP2L2 / RFU, ARFIP1 / Fold change vs veh, ARFIP1 / RFU, FAM179B / Fold change vs veh, FAM179B / RFU, BCL10 / Fold change vs veh, BCL10 / RFU, UHRF1BP1L / Fold change vs veh, UHRF1BP1L / RFU, BET1 / Fold change vs veh, BET1 / RFU, CNOT2 / Fold change vs veh, CNOT2 / RFU, ZNF268 / Fold change vs veh, ZNF268 / Fold change vs veh, ZNF507 / RFU, DGCR2 / Fold change vs veh, DGCR2 / RFU, WDSUB1 / Fold change vs veh, WDSUB1 / Fold change vs veh, HSP90B1 /// MIR3652 / RFU, ADSS / Fold change vs veh, ADSS / RFU, GK / Fold change vs veh, GK / RFU, ZNF148 / Fold change vs veh, ZNF148 / RFU, TAF9 / Fold change vs veh, TAF9 / RFU, SLC1A5 / Fold change vs veh, SLC1A5 / RFU, SLMO2 / Fold change vs veh, SLMO2 / RFU, ABCC4 / Fold change vs veh, ABCC4 / RFU, LOC101060439 /// RAP1B / Fold change vs veh, LOC101060439 /// RAP1B / RFU, RFX7 / Fold change vs veh, RFX7 / RFU, GTPBP10 / Fold change vs veh, GTPBP10 / RFU, CNEP1R1 / Fold change vs veh, CNEP1R1 / RFU, BIVM-ERCC5 /// ERCC5 / Fold change vs veh, BIVM-ERCC5 /// ERCC5 / RFU, ILF3 / Fold change vs veh, ILF3 / RFU 11762660_at / Fold change /veh 11762660_at / RFU VCAN (11757783_s_at) / Fold change /veh VCAN (11757783_s_at) / RFU DDX43 (11728927_at) / Fold change /veh DDX43 (11728927_at) / RFU KRT8 (11758188_x_at) / Fold change /veh KRT8 (11758188_x_at) / RFU NKD1 (11759106_at) / Fold change /veh NKD1 (11759106_at) / RFU SRD5A1 (11742802_a_at) / Fold change /veh SRD5A1 (11742802_a_at) / RFU TPSAB1 /// TPSB2 (11721975_s_at) / Fold change /veh TPSAB1 /// TPSB2 (11721975_s_at) / RFU GSTM3 (11746129_a_at) / Fold change /veh GSTM3 (11746129_a_at) / RFU IL23R (11737362_x_at) / Fold change /veh IL23R (11737362_x_at) / RFU TMEM51 (11727254_a_at) / Fold change /veh TMEM51 (11727254_a_at) / RFU PIWIL2 (11732686_x_at) / Fold change /veh PIWIL2 (11732686_x_at) / RFU ORM1 (11744905_x_at) / Fold change /veh ORM1 (11744905_x_at) / RFU CCDC152 (11743942_at) / Fold change /veh CCDC152 (11743942_at) / RFU ECM1 (11717891_a_at) / Fold change /veh ECM1 (11717891_a_at) / RFU IL23R (11748794_a_at) / Fold change /veh IL23R (11748794_a_at) / RFU TNFAIP8L3 (11732012_x_at) / Fold change /veh TNFAIP8L3 (11732012_x_at) / RFU MBOAT4 (11741988_at) / Fold change /veh MBOAT4 (11741988_at) / RFU 11764193_at / Fold change /veh 11764193_at / RFU TMEM53 (11763286_at) / Fold change /veh TMEM53 (11763286_at) / RFU MAGEB2 (11727129_at) / Fold change /veh MAGEB2 (11727129_at) / RFU TMEM200A (11744735_a_at) / Fold change /veh TMEM200A (11744735_a_at) / RFU CCDC152 (11751479_a_at) / Fold change /veh CCDC152 (11751479_a_at) / RFU FAM211A (11726209_a_at) / Fold change /veh FAM211A (11726209_a_at) / RFU RGS16 (11746705_a_at) / Fold change /veh RGS16 (11746705_a_at) / RFU VCAN (11755009_s_at) / Fold change /veh VCAN (11755009_s_at) / RFU RHOB (11743442_s_at) / Fold change /veh RHOB (11743442_s_at) / RFU RGS16 (11720943_a_at) / Fold change /veh RGS16 (11720943_a_at) / RFU RGS16 (11720944_at) / Fold change /veh RGS16 (11720944_at) / RFU, VPS4B / Fold change vs veh, VPS4B / RFU, CREB1 / Fold change vs veh, CREB1 / RFU, DNAJC13 / Fold change vs veh, DNAJC13 / RFU, GNAQ / Fold change vs veh, GNAQ / RFU, CDK5R1 / Fold change vs veh, CDK5R1 / RFU, ZRANB3 / Fold change vs veh, ZRANB3 / RFU, CUL4A / Fold change vs veh, CUL4A / RFU, CCNY / Fold change vs veh, CCNY / RFU, UFL1 / Fold change vs veh, UFL1 / RFU, COG3 / Fold change vs veh, COG3 / RFU, DIAPH2 / Fold change vs veh, DIAPH2 / RFU, SKA2 / Fold change vs veh, SKA2 / RFU, AFF3 / Fold change vs veh, AFF3 / RFU, LMF1 / Fold change vs veh, LMF1 / RFU, IPO11 / Fold change vs veh, IPO11 / RFU, DFFB / Fold change vs veh, DFFB / RFU, FOXP1 / Fold change vs veh, FOXP1 / RFU, CARD8 / Fold change vs veh, CARD8 / RFU, STRN3 / Fold change vs veh, STRN3 / RFU, ADK / Fold change vs veh, ADK / RFU, RASSF2 / Fold change vs veh, RASSF2 / RFU, WIPF1 / Fold change vs veh, WIPF1 / RFU, LARP1B / Fold change vs veh, LARP1B / RFU, RASA1 / Fold change vs veh, RASA1 / RFU, RB1 / Fold change vs veh, RB1 / RFU, PPFIA1 / Fold change vs veh, PPFIA1 / RFU, MAT2A / Fold change vs veh, MAT2A / RFU, CCT5 / Fold change vs veh, CCT5 / RFU, WDR92 / Fold change vs veh, WDR92 / RFU, CUX1 / Fold change vs veh, CUX1 / RFU, TTC7A / Fold change vs veh, TTC7A / RFU, TMEM135 / Fold change vs veh, TMEM135 / RFU, DEPTOR / Fold change vs veh, DEPTOR / RFU, CPM / Fold change vs veh, CPM / RFU, DNAJB6 / Fold change vs veh, DNAJB6 / RFU, CACNA2D3 / Fold change vs veh, CACNA2D3 / RFU, DTX4 / Fold change vs veh, DTX4 / RFU, TFCP2 / Fold change vs veh, TFCP2 / RFU, GMCL1 /// GMCL1P1 / Fold change vs veh, GMCL1 /// GMCL1P1 / RFU, AEBP2 / Fold change vs veh, AEBP2 / RFU, SNHG1 /// SNORD22 /// SNORD25 /// SNORD26 /// SNORD27 /// SNORD28 /// SNORD29 /// SNORD31 / Fold change vs veh, SNHG1 /// SNORD22 /// SNORD25 /// SNORD26 /// SNORD27 /// SNORD28 /// SNORD29 /// SNORD31 / Fold change (Aza/veh), C12orf56 (ProbeSet 11735607_a_at) / Fold change (ACY-1035/veh), C12orf56 (ProbeSet 11735607_a_at) / Fold change (Aza/veh), FGFR1OP (ProbeSet 11751329_s_at) / Fold change (ACY-1035/veh), FGFR1OP (ProbeSet 11751329_s_at) / Fold change (Aza/veh), VPS36 (ProbeSet 11739960_a_at) / Fold change (ACY-1035/veh), VPS36 (ProbeSet 11739960_a_at) / RFU SYPL1 (11715823_x_at) / Fold change /veh SYPL1 (11715823_x_at) / RFU IGFBP7 (11715501_s_at) / Fold change /veh IGFBP7 (11715501_s_at) / RFU REEP3 (11722064_at) / Fold change /veh REEP3 (11722064_at) / RFU IGLL1 (11728026_x_at) / Fold change /veh IGLL1 (11728026_x_at): dose or concentration left out as unconfirmed
Details: MV-4-11 cells, 48 hours

Nc1ccc(-c2cccs2)cc1NC(=O)c1ccc2c(c1)cc(C1CC1)n2CCN1CCOCC1 [ACY-1035]
RFU MAGEB2 (11727129_at): 5.89 RFU
